Laboratory results reported in patent US8772499B2, “TRPV3 modulators” (AbbVie Inc., priority 2011, dated 2014).

How the values were obtained:
TRPV3 = TRPV3 agonist, relatively weak and nonspecific across TRPs; cited from earlier work
human TRPV3 = target: T1, human TRPV3 (Homo sapiens, UniProt Q8NET8); assay: In vitro antagonism of recombinant human TRPV3 activation (FLIPR Tetra calcium assay); type: cell-based; conditions: HEK293 cells stably expressing human TRPV3; agonist 2-APB at 80 μM; actual measured value shown parenthetically; in most cases average of at least two runs; read-out: IC50
T1 construct: expressed in transfected cells
T1 sequence (Q8NET8 1-790): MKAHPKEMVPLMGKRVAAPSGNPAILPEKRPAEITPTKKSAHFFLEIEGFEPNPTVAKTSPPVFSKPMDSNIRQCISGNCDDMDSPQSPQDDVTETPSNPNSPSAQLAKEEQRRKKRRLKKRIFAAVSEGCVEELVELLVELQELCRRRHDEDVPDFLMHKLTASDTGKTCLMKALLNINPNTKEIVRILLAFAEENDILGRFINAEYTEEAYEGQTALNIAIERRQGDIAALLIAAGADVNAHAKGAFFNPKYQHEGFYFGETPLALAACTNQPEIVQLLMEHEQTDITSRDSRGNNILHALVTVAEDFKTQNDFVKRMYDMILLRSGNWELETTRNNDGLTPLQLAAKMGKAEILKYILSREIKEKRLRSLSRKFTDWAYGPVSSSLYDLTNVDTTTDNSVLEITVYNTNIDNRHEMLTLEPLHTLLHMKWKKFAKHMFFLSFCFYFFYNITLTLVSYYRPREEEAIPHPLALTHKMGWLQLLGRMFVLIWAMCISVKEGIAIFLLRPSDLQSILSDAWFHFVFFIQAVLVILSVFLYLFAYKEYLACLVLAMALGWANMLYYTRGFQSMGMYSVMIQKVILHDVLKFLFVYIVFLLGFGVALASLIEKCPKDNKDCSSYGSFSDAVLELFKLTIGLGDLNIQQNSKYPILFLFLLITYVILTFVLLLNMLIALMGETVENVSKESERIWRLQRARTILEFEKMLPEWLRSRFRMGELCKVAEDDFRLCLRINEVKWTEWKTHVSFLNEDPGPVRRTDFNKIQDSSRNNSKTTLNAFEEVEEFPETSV
Summary of the method: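 Calcium flux read over a 10 min run: compound added at 10 s to Calcium-4-loaded human TRPV3-HEK293 cells, agonist 2-APB (80 μM, its EC80) after 3 min. IC50 derived from peak-minus-baseline signal as percentage of uninhibited 2-APB response, typically averaged over at least two runs.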

[1] = In vitro human microsomal stability assay; type: in vitro ADME; conditions: human, microsomes, 0.5 h, 0.5 μM, pH 7.4
Summary of the method: (§1)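 Sprague-Dawley rat or human liver microsomes; 37° C.; NADPH cofactor, also spiked into time-zero samples.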

[2] = In vitro rat microsomal stability assay; type: in vitro ADME, rat (Sprague-Dawley); conditions: Sprague-Dawley, rat, microsomes, 0.5 h, 0.5 μM, pH 7.4
Summary of the method: as §1

[3] = tested on: chronic constriction injury (CCI) model of neuropathic pain; assay: In vivo chronic constriction injury (CCI) model of neuropathic pain, mechanical allodynia (von Frey); parameters: species or system CD1 mice; conditions: Mus musculus, po, 1 h, 100 mg/kg oral dose, mechanical allodynia 1 hour after dosing, CCI mice, average of eight mice; vehicle 0%, control 100%; read-out: % EFFECT
Experimental: Test compounds were evaluated for analgesic effect in an in vivo chronic constriction injury (CCI) model of neuropathic pain. CD1 mice (Charles River) were used for these studies. Prior to testing (2-4 weeks) animals underwent a surgical procedure consisting of approximately 3 loose ligatures around the sciatic nerve. Following sterilization procedures, under isofluorane anesthetic, a 1.5 cm incision was made dorsal to the pelvis. The biceps femoris and gluteous superficialis (right side) were separated and the sciatic nerve exposed, isolated, and 2-4 loose ligatures (5-0 chromic gut) with less than 1 mm spacing were placed around it. Following hemostasis, the wound was sutured (layer of muscle closed with 5-0 nylon suture, and the wound closed with surgical staples) and coated with iodine. The mice were allowed to recover on a warming plate and were returned to their home cages (soft bedding) when able to walk on their own.
Two to four weeks after the surgery, test compound was administered orally (PO) in these mice, and mechanical allodynia was evaluated 1 hour after oral dosing where the threshold to response was assessed using calibrated von Frey monofilaments. The von Frey monofilaments were applied to the hind paw at increasing forces until the animal responded by lifting its paw. Normally, the force of the von Frey monofilament was innocuous and only in the altered state (allodynia or hyperalgesia) did the animals respond to this stimulation. […] At the end of the experiment, after behavioral testing, plasma (and in some instances brain tissue) was taken for exposure analysis.
Each test compound was evaluated in eight different mice. The data reported in Table 3 represent the average value of the approximate percent effect of each compound in relieving neuropathic pain in mice receiving 100 mg/kg oral dose of the test compound. The grams of force needed to elicit a withdrawal response from the injured mouse that was challenged with vehicle was assigned a 0% effect, while the grams of force needed to elicit a withdrawal response from the control was given a 100% effect.

IC50 (human TRPV3) [µM]	HUMAN MICROSOMAL STABILITY (% REMAINING AFTER 30 MINUTES) [1] [%]	RAT MICROSOMAL STABILITY (% REMAINING AFTER 30 MINUTES) [2] [%]	Compound	EC50 (TRPV3) [µM]	inhibition in vivo at 100 mg/kg [3] [%]
			c1ccc(B(OB(c2ccccc2)c2ccccc2)c2ccccc2)cc1 [DPBA, diphenylboronic anhydride]	~40	
			NCCOB(c1ccccc1)c1ccccc1 [Example 2-APB, 2-aminoethoxydiphenylborate]	~40	
0.14	>85	>85	OC1CC(c2ccnc(C(F)(F)F)c2)(C(O)c2ccccn2)C1 [Example 306, trans-3-[(S)-hydroxy(pyridin-2-yl)methyl]-3-[2-(trifluoromethyl)pyridin-4-yl]cyclobutanol]		0
